By IC50 is commonly meant the midpoint of a concentration-inhibition curve. Low values mean greater potency in that assay, high ones weaker potency in that assay. As usually defined, the share remaining is what is left of the initial amount, in per cent.

Series [1] has as its target Keap1-Nrf2 PPI (Keap1 Kelch domain protein / FITC-9mer Nrf2 peptide amide) (Homo sapiens, UniProt Q14145). Briefly: Fluorescence polarisation. It counts as binding. The following applies: for inhibition at 50 µM: read-out: inhibitory rate against Keap1-Nrf2 PPI; for inhibitory activities against Keap1-Nrf2 PPI compared to compound K3: FP assay, 5 and 50 μM, R2 substituent varied. For orientation: Fluorescence polarisation rises when a labelled molecule tumbles more slowly, as on binding a larger partner.

The nature of series [2]: Metabolic stability in human liver microsomes. It counts as in vitro ADME. As to conditions: pH 7.4. For orientation: Microsomes from liver hold many membrane-bound enzymes, among them those of drug oxidation.

Chain of Keap1-Nrf2 PPI (Keap1 Kelch domain protein / FITC-9mer Nrf2 peptide amide) (Q14145 321-609 limits assumed): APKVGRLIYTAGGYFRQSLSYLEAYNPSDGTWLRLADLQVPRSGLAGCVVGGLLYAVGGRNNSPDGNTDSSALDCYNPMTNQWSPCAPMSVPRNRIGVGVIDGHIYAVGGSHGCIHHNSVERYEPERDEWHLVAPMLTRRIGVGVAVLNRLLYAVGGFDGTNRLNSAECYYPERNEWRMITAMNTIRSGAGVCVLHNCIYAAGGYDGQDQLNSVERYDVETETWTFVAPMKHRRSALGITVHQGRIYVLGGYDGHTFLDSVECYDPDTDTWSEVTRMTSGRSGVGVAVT

As for `COc1ccc(S(=O)(=O)Nc2ccc(NS(=O)(=O)c3ccc(OC)cc3)cc2)cc1` [K3], in series [1], the midpoint of inhibition, the IC50, lay at 36.3 µM and the inhibition at 50 µM is around 68%. On to `COc1ccc(S(=O)(=O)Nc2ccc(NS(=O)(=O)c3ccccc3)cc2)cc1` [K10], for which the “inhibitory activities against Keap1-Nrf2 PPI compared to compound K3” value (“inhibitory activities … compared to compound K3” below) in series [1] is “markedly decreased”. `COc1ccc(S(=O)(=O)Nc2ccc(NS(=O)(=O)c3ccc(C)cc3)cc2)cc1` [K11]: the “inhibitory activities … compared to compound K3” value in series [1] is listed as “markedly decreased”. Consider `COc1ccc(S(=O)(=O)Nc2ccc(NS(=O)(=O)c3ccc(-c4ccccc4)cc3)cc2)cc1` [K14], for which, in series [1], the “inhibitory activities … compared to compound K3” value is on record as “markedly decreased”. Regarding `COc1ccc(S(=O)(=O)Nc2ccc(NS(=O)(=O)Cc3ccccc3)cc2)cc1` [K15], the “inhibitory activities … compared to compound K3” value in series [1] is recorded as “markedly decreased”. Turning to `COc1ccc(S(=O)(=O)Nc2ccc(NS(=O)(=O)c3ccc4ccccc4c3)cc2)cc1` [K16], the “inhibitory activities … compared to compound K3” value in series [1] is on record as “markedly decreased”. Take `COc1ccc(S(=O)(=O)Nc2ccc(NS(=O)(=O)c3cccc4cccnc34)cc2)cc1` [K17]: the “inhibitory activities … compared to compound K3” value in series [1] is “markedly decreased”. For `COc1ccc(S(=O)(=O)Nc2ccc(NS(=O)(=O)c3cccnc3)cc2)cc1` [K18], in series [1], the IC50 was around 31.5 µM, the “inhibitory activities … compared to compound K3” value was “slightly higher” and the inhibition at 50 µM was 72%.

In turn, `COc1ccc(S(=O)(=O)Nc2ccc(NS(=O)(=O)c3ccc(OC)cc3)c(CCC(=O)O)c2)cc1` [KP-1] displayed an IC50 in series [1] of 0.74 µM.

`O=C(CCc1ccc(O)cc1)c1c(O)cc(O)cc1O` [PHL, Phloretin, reference compound]: 8.67 µM corresponded to half-maximal inhibition in series [1] (IC50). The compound further showed an amount remaining at 0.5 h, 10 μM in series [2] of 10.3%.

Values taken from article PMC9518255 (Journal of Enzyme Inhibition and Medicinal Chemistry, 2022).
